In the supplement of paper PMC8967900:

What was measured:
Assay in all cases: selective drug sensitivity score (sDSS, relative to normal bone marrow) (sDSS (score)); higher = more potent and effective on the cell line relative to normal bone marrow cells
Conditions in all cases: 72 h
[1] = tested on: HAL-01
[2] = tested on: TMD5
[3] = tested on: KOPN-8
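Also: ALL cell lines in 384-well plates, five doses spanning 10,000-fold, each plate scaled between vehicle and 100 µmol/L benzalkonium chloride controls, sDSS an adapted area-under-curve metric.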

Compound	selective drug sensitivity score [1]	selective drug sensitivity score [2]	selective drug sensitivity score [3]
Cc1ccc(NS(=O)(=O)c2cccc(C#N)c2)c2[nH]cc(C#N)c12 [E7820] (top concentration 50000 nM)	12.3	7.32	19.8
Clc1ccccc1C(c1ccccc1)(c1ccccc1)n1cccn1 [TRAM-34] (top concentration 1000 nM)	2.72	-0.08	-0.08
CNC(=O)[C@@H](NC(=O)[C@H](CC(C)C)[C@H](O)C(=O)NO)C(C)(C)C [Marimastat] (top concentration 10000 nM)	-1.28	3.72	7.22
O=S(=O)(c1cccc2c(O)nccc12)N1CCCNCC1 [Hydroxyfasudil] (top concentration 19000 nM)	1.38	5.68	0.78
Cc1ccc(-c2cc(C(F)(F)F)nn2-c2ccc(S(N)(=O)=O)cc2)cc1 [Celecoxib] (top concentration 10000 nM)	0.04	1.34	0.74
CC[C@@H]1C(=O)OC[C@@H]1Cc1cncn1C [Pilocarpine] (top concentration 40000 nM)	-1.56	-1.56	-1.56
COc1cc([C@@H]2c3cc4c(cc3[C@@H](O[C@@H]3O[C@@H]5CO[C@@H](C)O[C@H]5[C@H](O)[C@H]3O)[C@H]3COC(=O)[C@H]23)OCO4)cc(OC)c1O [Etoposide] (top concentration 10000 nM)	5.14	5.24	24.9
CC(C)N(CCCNC(=O)Nc1ccc(C(C)(C)C)cc1)C[C@H]1O[C@@H](n2cc(Br)c3c(N)ncnc32)[C@H](O)[C@@H]1O [SGC0946] (top concentration 10000 nM)	0.68	3.98	-0.72
CCCCNc1ncc(C(=O)NCc2ccc(-n3ccnc3)cc2)c(NC2CCC(O)CC2)n1 (stereo not given) [UNC2881] (top concentration 2500 nM)	0.3	0.5	0.2
CC(=O)O[C@@]12CO[C@@H]1C[C@H](O)[C@@]1(C)C(=O)[C@H](O)C3=C(C)[C@@H](OC(=O)[C@H](O)[C@@H](NC(=O)OC(C)(C)C)c4ccccc4)C[C@@](O)([C@@H](OC(=O)c4ccccc4)[C@H]21)C3(C)C [Docetaxel] (top concentration 1000 nM)	4.9	8.5	23.7
